What was measured:
[1] = test system: CPA primary culture no. 2; assay: Steroid profile by LC/MS-MS in CPA primary culture no. 2; type: cell-based, human; conditions: for 11-DOC absolute change vs control / 11-DOC percentage change vs control / 17-OHP absolute change vs control / 17-OHP percentage change vs control / Androstenedione absolute change vs control / Androstenedione percentage change vs control / Corticosterone absolute change vs control / Corticosterone percentage change vs control / Cortisol absolute change vs control / Cortisol percentage change vs control / DHEA absolute change vs control / DHEAS absolute change vs control / Prog absolute change vs control / Prog percentage change vs control / Testosterone absolute change vs control / Testosterone percentage change vs control: CPA no. 2, Basal, 3 days
Protocol: To obtain primary cultures, adrenal specimens (adrenocortical adenomas, adrenal hyperplasias and adrenocortical carcinomas) were collected after adrenalectomy at the department of Surgery, Erasmus University Medical Center, Rotterdam, the Netherlands, between April 2016 and May 2018. The study was conducted under guidelines that have been approved by the Medical Ethics Committee of the Erasmus Medical Center and informed consent was obtained from all patients. Immediately after surgery, specimens were minced into small pieces of 2-3 mm^3, washed in culture medium and centrifuged for 5 minutes at 600 g. The tissue was stored overnight in culture medium at 4° C., where after the tissue was centrifuged again and the supernatant was removed. Fragments were dissociated using 10-25 ml collagenase type 1 (2 mg/ml: Sigma-Aldrich), followed by incubation at 37° C. for up to two hours. Ficoll (GE healthcare) density gradient separation was used once or twice as required in order to separate contaminating red blood cells from the tumor cells. Cell viability and cell amount were counted by trypan blue exclusion. Dissociated cells were plated at a density of 10^5 cells per well. ACTH-secreting corticotroph pituitary adenoma tissue from patients with Cushing's disease (n=2) was available after transsphenoidal surgery. Single-cell suspensions of the pituitary adenoma tissues were prepared as previously described in detail.
Primary culture conditions for primary cultures were similar as described in the section ‘cell culture and compounds’, but with small adjustments: ACTH was used at a concentration of 85 pM (250 pg/mL), treatment was started 3-4 days after plating of the cells and cells were incubated for 3 days, and; for pituitary primary cultures, levoketoconazole and racemic ketoconazole were only tested at a concentration of 1 μM. Owing to a limited number of cells obtained from the specimens, not all experiments were carried out in every primary culture.
Cortisol concentrations were measured in the supernatant using a chemiluminescence immunoassay system (Immulite 2000XPi; Siemens DPC Inc., Los Angeles, Calif., USA). In addition, we carried out multi-steroid analysis by liquid chromatography/mass spectrometry (LC/MS-MS) to accurately quantify androstenedione, corticosterone, cortisol, 11-deoxycortisol, DHEA, DHEAS, progesterone, 17-hydroxyprogesterone, and testosterone. Concentrations that were tested on the LC/MS-MS were closest to 50% inhibition or maximal inhibition of cortisol as determined by the immunoassay. Steroids were quantified with respect to a calibration series, with internal standards. Steroids were quantified on a Xevo TQS LC-MS/MS (Waters Chromatography).
Statistical analysis was performed using Graphpad Prism 6.0 (Graphpad Software, San Diego, CA). Non-linear regression curve fitting program was used to calculate the half maximal inhibitory concentrations (IC50) on cortisol production. Effects of both compounds on the steroid profile were measured as absolute change compared to control and compared using the Student's t-test. When assessing differences between effects of both compounds, the percentage change was evaluated and compared in order to correct for differences in the vehicle treated control cells. Values of P<0.05 were considered statistically significant and data are presented as mean SEM.

AtT20 cells = assay: ACTH secretion corrected for cell amount in AtT20 cells; type: cell-based, mouse
Protocol: Human adrenocortical carcinoma HAC15 and mouse corticotroph AtT20 cells were used, purchased as a kind gift by Dr. W. Rainey, and obtained from Dr. J. Tooze (European Organization for Molecular Biology), respectively. Both cell lines were cultured in 75 cm^2 flasks at 37° C. in a humidified incubator (Greiner Bio-One, Alphen a/d Rijn, the Netherlands) at 5% CO2. Dulbecco's Modified Eagle Medium F12 containing 5% fetal calf serum was used for HAC15, whereas AtT20 cells were cultured in Dulbecco's minimal essential medium (DMEM) supplemented with 10% fetal calf serum. Both mediums were supplemented with L-glutamine (2 mmol/L) and penicillin (10^5 U/L). Short tandem repeat (str) profiling using a Powerplex Kit (Promega, Leiden, the Netherlands) of HAC15 and AtT20 gave results consistent with the ATCC database, confirming the identity of both cell lines. Medium and supplements were obtained from Invitrogen, Breda, the Netherlands. Once a week, cells were harvested with trypsin (0.05%)-EDTA (0.53 mM) and resuspended in culture medium. Levoketoconazole (COR-003) and racemic ketoconazole (both from Cortendo AB) were dissolved in absolute ethanol (EtOH), according to manufacturer's instructions, and stored at −20° C. at a stock concentration of […]. At the start of each experiment, both drugs were freshly prepared and diluted in EtOH in the correct concentrations. Synacten (synthetic ACTH, Novartis Pharma A.G.) stock concentration was stored at 4° C. and dissolved in culture medium at the day of use. The final concentrations of ACTH were chosen based on a dose-response curve in HAC15 cells and previously reported studies in the literature. For HAC15, 200,000 and 100,000 cells were plated in 0.5 ml medium in 24 well plates for experiments of 1 and 3 days, respectively. […]
At the end of the AtT20 and primary pituitary adenoma culture experiments, medium was collected and supplemented with 1% of the protease inhibitor Trasylol to prevent degradation of ACTH. ACTH was measured using a commercially available, nonisotopic automatic chemiluminescence system (DPC Immulite).

CC(=O)N1CCN(c2ccc(OC[C@@H]3CO[C@@](Cn4ccnc4)(c4ccc(Cl)cc4Cl)O3)cc2)CC1 (relative stereo) [levoketoconazole, 2S,4R cis-1-acetyl-4-[4-[[2-(2,4-dichlorophenyl)-2-(1H-imidazol-1-ylmethyl)-1,3-dioxolan-4-yl]methoxyl]phenyl]piperazine]
11-DOC absolute change vs control ([1]; 0.1 μM): +14.80 nmol/l | 11-DOC percentage change vs control ([1]; 0.1 μM): (+5.4%) | 17-OHP absolute change vs control ([1]; 0.1 μM): +5.125 nmol/l | 17-OHP percentage change vs control ([1]; 0.1 μM): (+26%) | Androstenedione absolute change vs control ([1]; 0.1 μM): -36.68 nmol/L | Androstenedione percentage change vs control ([1]; 0.1 μM): −79% | Corticosterone absolute change vs control ([1]; 0.1 μM): +49.50 nmol/l | Corticosterone percentage change vs control ([1]; 0.1 μM): +54% | Cortisol absolute change vs control ([1]; 0.1 μM): -264.2 nmol/L | Cortisol percentage change vs control ([1]; 0.1 μM): −40% | DHEA absolute change vs control ([1]; 0.1 μM): <LLQ | DHEAS absolute change vs control ([1]; 0.1 μM): <LLQ | Prog absolute change vs control ([1]; 0.1 μM): +2.350 nmol/l | Prog percentage change vs control ([1]; 0.1 μM): (+138%) | Testosterone absolute change vs control ([1]; 0.1 μM): -0.3750 nmol/L | Testosterone percentage change vs control ([1]; 0.1 μM): −66% | Androstenedione absolute change vs control ([1]; 0.1 μM, listed as LK): -36.68 nmol/L | Androstenedione percentage change vs control ([1]; 0.1 μM, listed as LK): (−79%) | Corticosterone percentage change vs control ([1]; 0.1 μM, listed as LK): (+54%) | Cortisol absolute change vs control ([1]; 0.1 μM, listed as LK): -264.2 nmol/L | Cortisol percentage change vs control ([1]; 0.1 μM, listed as LK): (−40%) | Testosterone absolute change vs control ([1]; 0.1 μM, listed as LK): -0.3750 nmol/L | Testosterone percentage change vs control ([1]; 0.1 μM, listed as LK): (−66%) | 11-DOC absolute change vs control ([1]; 0.5 μM): -98.25 nmol/L | 11-DOC percentage change vs control ([1]; 0.5 μM): (−36%) | 17-OHP absolute change vs control ([1]; 0.5 μM): +21.28 nmol/l | 17-OHP percentage change vs control ([1]; 0.5 μM): (+107%) | Androstenedione absolute change vs control ([1]; 0.5 μM): -45.18 nmol/L | Androstenedione percentage change vs control ([1]; 0.5 μM): (−97%) | Corticosterone absolute change vs control ([1]; 0.5 μM): +218.0 nmol/l | Corticosterone percentage change vs control ([1]; 0.5 μM): (+239%) | Cortisol absolute change vs control ([1]; 0.5 μM): -633.3 nmol/L | Cortisol percentage change vs control ([1]; 0.5 μM): (−96%) | DHEA absolute change vs control ([1]; 0.5 μM): <LLQ | DHEAS absolute change vs control ([1]; 0.5 μM): <LLQ | Prog absolute change vs control ([1]; 0.5 μM): +39.95 nmol/l | Prog percentage change vs control ([1]; 0.5 μM): (+2350%) | Testosterone absolute change vs control ([1]; 0.5 μM): -0.4725 nmol/L | Testosterone percentage change vs control ([1]; 0.5 μM): (−83%) | total change of steroids: decrease ([1]; CPA no. 2, basal, 0.1 μM): 229.5 nmol/L | Maximal inhibition of ACTH secretion (AtT20 cells; AtT20, 7 days of treatment with 10 μM, corrected for cell amount): 38% | ACTH secretion corrected for cell amount (AtT20 cells; AtT20, after 3 days of treatment): showed inhibition of ACTH secretion

CC(=O)N1CCN(c2ccc(OCC3COC(Cn4ccnc4)(c4ccc(Cl)cc4Cl)O3)cc2)CC1 (racemic) [racemic ketoconazole, Ketoconazole]
11-DOC absolute change vs control ([1]; 0.1 μM): +6.400 nmol/l | 11-DOC percentage change vs control ([1]; 0.1 μM): (+2.4%) | 17-OHP absolute change vs control ([1]; 0.1 μM): -0.4750 nmol/L | 17-OHP percentage change vs control ([1]; 0.1 μM): (−2.4%) | Androstenedione absolute change vs control ([1]; 0.1 μM): -32.85 nmol/L | Androstenedione percentage change vs control ([1]; 0.1 μM): −66% | Corticosterone absolute change vs control ([1]; 0.1 μM): +175.8 nmol/l | Corticosterone percentage change vs control ([1]; 0.1 μM): +213% | Cortisol absolute change vs control ([1]; 0.1 μM): -92.95 nmol/L | Cortisol percentage change vs control ([1]; 0.1 μM): −14% | DHEA absolute change vs control ([1]; 0.1 μM): <LLQ | DHEAS absolute change vs control ([1]; 0.1 μM): <LLQ | Prog absolute change vs control ([1]; 0.1 μM): +0.5167 nmol/l | Prog percentage change vs control ([1]; 0.1 μM): (+36%) | Testosterone absolute change vs control ([1]; 0.1 μM): -0.3250 nmol/L | Testosterone percentage change vs control ([1]; 0.1 μM): (−57%) | Androstenedione percentage change vs control ([1]; 0.1 μM, listed as RK): (−66%*) | Corticosterone percentage change vs control ([1]; 0.1 μM, listed as RK): (+213%****) | Cortisol percentage change vs control ([1]; 0.1 μM, listed as RK): (−14%**) | 11-DOC absolute change vs control ([1]; 0.5 μM): -37.70 nmol/L | 11-DOC percentage change vs control ([1]; 0.5 μM): (−14%***) | 17-OHP absolute change vs control ([1]; 0.5 μM): +11.45 ± 1 nmol/l | 17-OHP percentage change vs control ([1]; 0.5 μM): (+58%*) | Androstenedione absolute change vs control ([1]; 0.5 μM): -47.28 nmol/L | Androstenedione percentage change vs control ([1]; 0.5 μM): (−95%) | Corticosterone absolute change vs control ([1]; 0.5 μM): +143.8 nmol/l | Corticosterone percentage change vs control ([1]; 0.5 μM): (+174%*) | Cortisol absolute change vs control ([1]; 0.5 μM): -562.7 nmol/L | Cortisol percentage change vs control ([1]; 0.5 μM): (−87%) | DHEA absolute change vs control ([1]; 0.5 μM): <LLQ | DHEAS absolute change vs control ([1]; 0.5 μM): <LLQ | Prog absolute change vs control ([1]; 0.5 μM): +22.47 nmol/l | Prog percentage change vs control ([1]; 0.5 μM): (+1567%) | Testosterone absolute change vs control ([1]; 0.5 μM): -0.4475 nmol/L | Testosterone percentage change vs control ([1]; 0.5 μM): (−79%) | total change of steroids: increase ([1]; CPA no. 2, basal, 0.1 μM): 55.6 nmol/L | inhibition at 10 µM (AtT20 cells; Mus musculus, 168 h, AtT20, 7 days of treatment with 10 μM, corrected for cell amount, read-out: Maximal inhibition of ACTH secretion): 34%

Source: US12201632B2, “Levoketoconazole for treatment of congenital adrenal hyperplasia and primary aldosteronism” (Strongbridge Dublin Limited, priority 2018, dated 2025)
